How the values were obtained:
[1] = test system: Puccinia recondita f. sp. tritici (the causal agent of wheat leaf rust); assay: Test C: preventive spray on wheat seedlings, wheat leaf rust, visual disease rating; assay type: in vivo; details: wheat seedlings, 100 = 100% disease control, 0 = no control
How it was run: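 Wheat seedlings sprayed to run-off with compound in acetone/water (50/50) with 250 ppm PEG400, then inoculated with spores the following day. After 24 h saturated humidity at 20° C. and 6 days in growth chamber at 20° C., disease rated visually as % control relative to untreated controls.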

[2] = test system: Phakopsora pachyrhizi (the causal agent of Asian soybean rust); assay: Test A: preventive spray on soybean seedlings, Asian soybean rust, visual disease rating; assay type: in vivo; details: soybean seedlings, 100 = 100% disease control, 0 = no control
How it was run: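 Compound in acetone/water (50/50) with 250 ppm PEG400 sprayed to run-off on soybean seedlings; inoculated next day with Phakopsora pachyrhizi spores. Held 24 h at 22° C in saturated atmosphere, then 8 days in a 22° C growth chamber before visual rating as % disease control relative to controls.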

| Structure (SMILES) | Test C disease control rating ([1]; 10 ppm test suspension) | Test A disease control rating ([2]; 10 ppm test suspension) | Test C disease control rating ([1]; 50 ppm test suspension) | Test A disease control rating ([2]; 50 ppm test suspension) |
| --- | --- | --- | --- | --- |
| CNC(=O)c1cnn(CCCc2ccc(-c3noc(C(F)(F)F)n3)cc2)c1 [compound 415] | 96% | 100% | – | – |
| CCCOC(=O)c1cnn(Cc2ccc3cc(-c4noc(C(F)(F)F)n4)ccc3c2)c1 [compound 416] | – | – | 0% | 77% |
| N#Cc1cccn(Cc2ccc(-c3noc(C(F)(F)F)n3)cc2)c1=O [compound 417] | 100% | 100% | – | – |
| CCOC(=O)c1cncn(Cc2ccc(-c3noc(C(F)(F)F)n3)cc2)c1=O [compound 418] | 99% | 100% | – | – |
| CCOC(=O)c1cn(Cc2ccc(-c3noc(C(F)(F)F)n3)cc2)c(=O)cn1 [compound 419] | 99% | 96% | – | – |
| COC(=O)c1ccc(=O)n(Cc2ccc(-c3noc(C(F)(F)F)n3)cc2)c1 [compound 420] | 100% | 100% | – | – |
| COc1ccn(Cc2ccc(-c3noc(C(F)(F)F)n3)cc2)c(=O)c1 [compound 421] | 100% | 100% | – | – |
| COC(=O)c1cccn(Cc2ccc(-c3noc(C(F)(F)F)n3)cc2)c1=O [compound 422] | 93% | 90% | – | – |
| COC(=O)c1nccn(Cc2ccc(-c3noc(C(F)(F)F)n3)cc2)c1=O [compound 423] | 80% | 86% | – | – |
| CCOC(=O)c1cnn(Cc2ccc(-c3noc(C(F)(F)F)n3)cn2)c1 [compound 424] | 96% | 100% | – | – |
| COC(=O)c1cnn(CCCc2ccc(-c3noc(C(F)(F)F)n3)cc2)c1 [compound 427] | – | – | 67% | 100% |
| CCOC(=O)c1cnn(CCCc2ccc(-c3noc(C(F)(F)F)n3)cc2)c1 [compound 428] | – | – | 100% | 100% |
| C#CCNC(=O)C1=NOC(Cc2ccc(-c3noc(C(F)(F)F)n3)s2)C1 (stereo not shown) [compound 429] | – | – | 100% | 100% |
| CCN(CC)C(=O)C1=NOC(Cc2ccc(-c3noc(C(F)(F)F)n3)s2)C1 (stereo not shown) [compound 430] | – | – | 100% | 100% |
| CCOC(=O)C1(Cc2ccc(-c3noc(C(F)(F)F)n3)cc2)CCNC1=O (stereo not shown) [compound 431] | – | – | 98% | 99% |
| CCOC(=O)C1(Cc2ccc(-c3noc(C(F)(F)F)n3)cc2)CCCNC1=O (stereo not shown) [compound 432] | – | – | 92% | 100% |
| FC(F)(F)c1nc(-c2ccc(Cn3cc4cnc(Cl)nc4n3)cc2)no1 [compound 433] | 99% | 100% | – | – |
| CSCC(=O)COC(=O)c1cnn(Cc2ccc(-c3noc(C(F)(F)F)n3)cc2)c1 [compound 434] | 98% | 100% | – | – |
| N#Cc1cnn(CCc2ccc(-c3noc(C(F)(F)F)n3)cc2)c1 [compound 435] | 74% | 100% | – | – |
| COC(=O)c1cnn(CCc2ccc(-c3noc(C(F)(F)F)n3)cc2)c1 [compound 436] | 74% | 100% | – | – |
| CCOC(=O)c1cnn(CCc2ccc(-c3noc(C(F)(F)F)n3)cc2)c1 [compound 437] | 86% | 100% | – | – |
| CCCOC(=O)c1cnn(Cc2cc(OC)c(-c3noc(C(F)(F)F)n3)s2)c1 [compound 439] | 0% | 0% | – | – |
| C=CCOC(=O)c1cnn(Cc2cc(OC)c(-c3noc(C(F)(F)F)n3)s2)c1 [compound 440] | 0% | 0% | – | – |
| CC(=O)Nc1cnn(Cc2ccc(-c3noc(C(F)(F)F)n3)cc2)c1 [compound 441] | 9% | 87% | – | – |
| CS(=O)(=O)Nc1cnn(Cc2ccc(-c3noc(C(F)(F)F)n3)cc2)c1 [compound 442] | 0% | 44% | – | – |
| CCOC(=O)Nc1cnn(Cc2ccc(-c3noc(C(F)(F)F)n3)cc2)c1 [compound 443] | 74% | 100% | – | – |
| FC(F)(F)c1nc(-c2ccc(Cn3ncc4c(I)ccnc43)cc2)no1 [compound 444] | 86% | 96% | – | – |

| Structure (SMILES) | Test C disease control rating ([1]; 10 ppm test suspension) | Test A disease control rating ([2]; 10 ppm test suspension) | Test C disease control rating ([1]; 50 ppm test suspension) | Test A disease control rating ([2]; 50 ppm test suspension) |
| --- | --- | --- | --- | --- |
| FC(F)(F)c1nc(-c2ccc(Cn3cc4c(I)ccnc4n3)cc2)no1 [compound 445] | 99% | 100% | – | – |
| Nc1nn(Cc2ccc(-c3noc(C(F)(F)F)n3)cc2)c2ncccc12 [compound 446] | 86% | 99% | – | – |
| CCCCCOC(=O)c1cnn(Cc2ccc(-c3noc(C(F)(F)F)n3)cc2)c1 [compound 447] | 100% | 100% | – | – |
| O=C(OCCCCl)c1cnn(Cc2ccc(-c3noc(C(F)(F)F)n3)cc2)c1 [compound 448] | 100% | 100% | – | – |
| O=C(NCC(F)(F)F)c1cnn(Cc2ccc(-c3noc(C(F)(F)F)n3)cc2)c1 [compound 449] | 100% | 100% | – | – |
| CCOC(=O)c1cnn(Cc2ccc3cc(-c4noc(C(F)(F)F)n4)ccc3c2)c1 [compound 457] | – | – | 0% | 77% |
| CN(C)C(=O)C1=NOC(Cc2ccc(-c3noc(C(F)(F)F)n3)s2)C1 (stereo not shown) [compound 460] | – | – | 99% | 100% |
| COCCNC(=O)C1=NOC(Cc2ccc(-c3noc(C(F)(F)F)n3)s2)C1 (stereo not shown) [compound 461] | – | – | 100% | 100% |
| O=C1N(Cc2ccc(-c3noc(C(F)(F)F)n3)cc2)CCc2cncn21 [compound 462] | 89% | 100% | – | – |
| COCCCOC(=O)c1cnn(Cc2ccc(-c3noc(C(F)(F)F)n3)cc2)c1 [compound 474] | 100% | 100% | – | – |
| O=C(OCCN1CCOCC1)c1cnn(Cc2ccc(-c3noc(C(F)(F)F)n3)cc2)c1 [compound 475] | 91% | 100% | – | – |
| CCOC(=O)COC(=O)c1cnn(Cc2ccc(-c3noc(C(F)(F)F)n3)cc2)c1 [compound 476] | 86% | 100% | – | – |
| O=C(OCCCl)c1cnn(Cc2ccc(-c3noc(C(F)(F)F)n3)cc2)c1 [compound 477] | 100% | 100% | – | – |
| O=C(OCCBr)c1cnn(Cc2ccc(-c3noc(C(F)(F)F)n3)cc2)c1 [compound 478] | – | – | 19% | 81% |
| O=C(OCc1ccccn1)c1cnn(Cc2ccc(-c3noc(C(F)(F)F)n3)cc2)c1 [compound 479] | 100% | 100% | – | – |
| CC(C)CCOC(=O)c1cnn(Cc2ccc(-c3noc(C(F)(F)F)n3)cc2)c1 [compound 480] | 98% | 100% | – | – |
| CCC(C)OC(=O)c1cnn(Cc2ccc(-c3noc(C(F)(F)F)n3)cc2)c1 (stereo not shown) [compound 481] | 100% | 100% | – | – |
| C=C(Cl)COC(=O)c1cnn(Cc2ccc(-c3noc(C(F)(F)F)n3)cc2)c1 [compound 482] | 100% | 100% | – | – |
| O=C(NCc1cccnc1)c1cnn(Cc2ccc(-c3noc(C(F)(F)F)n3)cc2)c1 [compound 483] | 54% | 100% | – | – |
| O=C(NCc1ccccc1)c1cnn(Cc2ccc(-c3noc(C(F)(F)F)n3)cc2)c1 [compound 484] | 100% | 100% | – | – |
| O=C(Nc1ccccc1)c1cnn(Cc2ccc(-c3noc(C(F)(F)F)n3)cc2)c1 [compound 485] | 99% | 100% | – | – |
| C=C(C#N)COC(=O)c1cnn(Cc2ccc(-c3noc(C(F)(F)F)n3)cc2)c1 [compound 486] | 89% | 100% | – | – |
| CCCOC(=O)c1cnn(C(C)c2ccc(-c3noc(C(F)(F)F)n3)s2)c1 (stereo not shown) [compound 493] | 100% | 100% | – | – |
| Cc1ccc(C(O)c2ccc(-c3noc(C(F)(F)F)n3)cc2)cc1 (stereo not shown) [compound 501] | 0% | 100% | – | – |
| FC(F)(F)c1nc(-c2ccc(Cn3ccc(S(F)(F)(F)(F)F)n3)cc2)no1 [compound 503] | 0% | 43% | – | – |
| FC(F)(F)c1nc(-c2ccc(Cn3nccc3S(F)(F)(F)(F)F)cc2)no1 [compound 504] | 0% | 74% | – | – |

Source: patent US20240090503A1, “FUNGICIDAL OXADIAZOLES AND THEIR MIXTURES” (FMC CORPORATION, priority 2020, published 2024)
